Measurements as given in patent EP1210950B1, “Composition against Coccidiosis” (New Pharma Research Sweden AB, priority 2000, dated 2002).

How the values were obtained:
Eimeria spp.oocysts [1] = assay: Anticoccidiocidal activity, test A3 (single components; oocyst count in faeces, Mc-Master technique); assay type: in vivo, chickens; settings: 20 birds in each group; for Mean No. of Eimeria spp.oocysts/gram faeces/group, 5 d.p.i. / Mean No. of Eimeria spp.oocysts/gram faeces/group, 6 d.p.i. / Mean No. of Eimeria spp.oocysts/gram faeces/group, 7 d.p.i. / Mean No. of Eimeria spp.oocysts/gram faeces/group, 8 d.p.i. / Mean No. of Eimeria spp.oocysts/gram faeces/group, 9 d.p.i. / Mean No. of Eimeria spp.oocysts/gram faeces/group, 10 d.p.i. / Mean No. of Eimeria spp.oocysts/gram faeces/group, 12 d.p.i.: during feeding with tested product; for Mean No. of Eimeria spp.oocysts/gram faeces/group, 5 d.p.i.: oral infection with mixture of 5 Eimeria strains, ppm in feed as given per group; for Total number of oocysts: sum of 5-12 d.p.i.
Excerpt: A total of 100 one day old Habbared X breed chickens were used in the test. They were reared on un-medicated feed as one group during the first 3 days. After that they were allocated into 5 groups (20 each) in 5 separate (1 x 1 meter) pens. With the beginning of the day 8 of bird life, the composition to be tested was mixed into the feed of each group and was used for daily feeding. Fresh water was supplied ad-libetum. The test groups were: [table] The birds were kept on medicated feed for totally […]. […] Eimeria acervulina, E. maxima, E. necatrix, E. tenella and E. brunetti. Fresh fecal droplets were collected daily from the 4th day post experimental infection until day 13 post infection. Mean number of oocyst per gram […] for each group were calculated using the Mc-Master technique according to Soulsby (1984).

Eimeria spp.oocysts [2] = assay: Anticoccidiocidal activity, test A2 (oocyst count in faeces of infected chickens, medicated feed); assay type: in vivo; settings: 22 birds in each group
Excerpt: A total of 88 one day old Habbared X breed chickens were used in the test. They were allocated into 4 groups (22 birds in each group), one group serving as a control group.
(§1) Each composition to be tested was mixed in a sufficient amount of feed for each group and was used for daily feeding from the day zero of the test. Fresh water was supplied ad-libetum.

Eimeria spp.oocysts [3] = assay: Anticoccidiocidal activity, test A1 (oocyst count in faeces of infected chickens, medicated feed); assay type: in vivo; settings: 23 birds in each group
Excerpt: A total of 92 one day old Habbared X breed chickens were used in the test. They were allocated into 4 groups (23 birds in each group), one group serving as a control group.
as §1

[4] = 6 d.p.i., during feeding with tested product, ppm in feed as given per group
[5] = 7 d.p.i., during feeding with tested product
[6] = 8 d.p.i., during feeding with tested product
[7] = 9 d.p.i., during feeding with tested product
[8] = 10 d.p.i., during feeding with tested product
[9] = 11 d.p.i., during feeding with tested product
[10] = 12 d.p.i., during feeding with tested product
[11] = 13 d.p.i., during feeding with tested product

SMILES	Mean No. of Eimeria spp.oocysts/gram faeces/group, 5 d.p.i. (Eimeria spp.oocysts [1])	Mean No. of Eimeria spp.oocysts/gram faeces/group, 6 d.p.i. (Eimeria spp.oocysts [1])	Mean No. of Eimeria spp.oocysts/gram faeces/group, 7 d.p.i. (Eimeria spp.oocysts [1])	Mean No. of Eimeria spp.oocysts/gram faeces/group, 8 d.p.i. (Eimeria spp.oocysts [1])	Mean No. of Eimeria spp.oocysts/gram faeces/group, 9 d.p.i. (Eimeria spp.oocysts [1])	Mean No. of Eimeria spp.oocysts/gram faeces/group, 10 d.p.i. (Eimeria spp.oocysts [1])	Mean No. of Eimeria spp.oocysts/gram faeces/group, 12 d.p.i. (Eimeria spp.oocysts [1])	Total number of oocysts (Eimeria spp.oocysts [1])	further results
NC(N)=Nc1nc(CSCCC(N)=NS(N)(=O)=O)cs1 [Famo-tidine, Famotidine]	0.0 oocysts/gram faeces/group (number per thousand oocysts)	0.0 oocysts/gram faeces/group (number per thousand oocysts)	160 oocysts/gram faeces/group (number per thousand oocysts)	280 oocysts/gram faeces/group (number per thousand oocysts)	460 oocysts/gram faeces/group (number per thousand oocysts)	10 oocysts/gram faeces/group (number per thousand oocysts)	0 oocysts/gram faeces/group (number per thousand oocysts)	910 oocysts/gram faeces/group (number per thousand oocysts)	
Cc1nc(C)c(Cl)c(O)c1Cl [Clopidol]									Mean No. of Eimeria spp.oocysts/gram faeces/group, 6 d.p.i. (Eimeria spp.oocysts [2]; [4]): 2 oocysts/gram faeces/group (number per thousand oocysts); Mean No. of Eimeria spp.oocysts/gram faeces/group, 7 d.p.i. (Eimeria spp.oocysts [2]; [5]): 900 oocysts/gram faeces/group (number per thousand oocysts); Mean No. of Eimeria spp.oocysts/gram faeces/group, 8 d.p.i. (Eimeria spp.oocysts [2]; [6]): 1300 oocysts/gram faeces/group (number per thousand oocysts); Mean No. of Eimeria spp.oocysts/gram faeces/group, 9 d.p.i. (Eimeria spp.oocysts [2]; [7]): 980 oocysts/gram faeces/group (number per thousand oocysts); Mean No. of Eimeria spp.oocysts/gram faeces/group, 10 d.p.i. (Eimeria spp.oocysts [2]; [8]): 1500 oocysts/gram faeces/group (number per thousand oocysts); Mean No. of Eimeria spp.oocysts/gram faeces/group, 11 d.p.i. (Eimeria spp.oocysts [2]; [9]): 200 oocysts/gram faeces/group (number per thousand oocysts); Mean No. of Eimeria spp.oocysts/gram faeces/group, 12 d.p.i. (Eimeria spp.oocysts [2]; [10]): 200 oocysts/gram faeces/group (number per thousand oocysts); Mean No. of Eimeria spp.oocysts/gram faeces/group, 13 d.p.i. (Eimeria spp.oocysts [2]; [11]): 130 oocysts/gram faeces/group (number per thousand oocysts); Total number of oocysts (Eimeria spp.oocysts [2]; sum of 6-13 d.p.i.): 5212 oocysts/gram faeces/group (number per thousand oocysts); Mean No. of Eimeria spp.oocysts/gram faeces/group, 6 d.p.i. (Eimeria spp.oocysts [3]; [4]): 8 oocysts/gram faeces/group (number per thousand oocysts); Mean No. of Eimeria spp.oocysts/gram faeces/group, 7 d.p.i. (Eimeria spp.oocysts [3]; [5]): 9600 oocysts/gram faeces/group (number per thousand oocysts); Mean No. of Eimeria spp.oocysts/gram faeces/group, 8 d.p.i. (Eimeria spp.oocysts [3]; [6]): 1872 oocysts/gram faeces/group (number per thousand oocysts); Mean No. of Eimeria spp.oocysts/gram faeces/group, 9 d.p.i. (Eimeria spp.oocysts [3]; [7]): 3900 oocysts/gram faeces/group (number per thousand oocysts); Mean No. of Eimeria spp.oocysts/gram faeces/group, 10 d.p.i. (Eimeria spp.oocysts [3]; [8]): 420 oocysts/gram faeces/group (number per thousand oocysts); Mean No. of Eimeria spp.oocysts/gram faeces/group, 11 d.p.i. (Eimeria spp.oocysts [3]; [9]): 14 oocysts/gram faeces/group (number per thousand oocysts); Mean No. of Eimeria spp.oocysts/gram faeces/group, 12 d.p.i. (Eimeria spp.oocysts [3]; [10]): 53 oocysts/gram faeces/group (number per thousand oocysts); Mean No. of Eimeria spp.oocysts/gram faeces/group, 13 d.p.i. (Eimeria spp.oocysts [3]; [11]): 250 oocysts/gram faeces/group (number per thousand oocysts); Total number of oocysts (Eimeria spp.oocysts [3]; sum of 6-13 d.p.i.): 16117 oocysts/gram faeces/group (number per thousand oocysts)
CN[C@@H]1[C@H](O[C@H]2[C@H](O[C@H]3[C@H](O)[C@@H](O)[C@H](NC(=N)N)[C@@H](O)[C@@H]3NC(=N)N)O[C@@H](C)[C@]2(O)CO)O[C@@H](CO)[C@H](O)[C@H]1O [dihydro-streptomycin, dihydrostreptomycin]	0.0 oocysts/gram faeces/group (number per thousand oocysts)	38 oocysts/gram faeces/group (number per thousand oocysts)	710 oocysts/gram faeces/group (number per thousand oocysts)	138 oocysts/gram faeces/group (number per thousand oocysts)	138 oocysts/gram faeces/group (number per thousand oocysts)	0 oocysts/gram faeces/group (number per thousand oocysts)		956 oocysts/gram faeces/group (number per thousand oocysts)	
Nc1nc2ncc(CNc3ccc(C(=O)N[C@@H](CCC(=O)O)C(=O)O)cc3)nc2c(=O)[nH]1 [folic acid]	0 oocysts/gram faeces/group (number per thousand oocysts)	22 oocysts/gram faeces/group (number per thousand oocysts)	251 oocysts/gram faeces/group (number per thousand oocysts)	310 oocysts/gram faeces/group (number per thousand oocysts)	220 oocysts/gram faeces/group (number per thousand oocysts)	3 oocysts/gram faeces/group (number per thousand oocysts)	0 oocysts/gram faeces/group (number per thousand oocysts)	806 oocysts/gram faeces/group (number per thousand oocysts)	
